Results on 16 molecules are retold here after patent US20240115557A1, “INHIBITORS OF RNA-GUIDED NUCLEASES AND USES THEREOF” (The Brigham and Women's Hospital, Inc., priority 2022, published 2024).

SMILES strings stand for the structures.

This assay addresses T1, SaCas9 (Staphylococcus aureus, UniProt J7RUA5).
T1 sequence (J7RUA5 1-1053): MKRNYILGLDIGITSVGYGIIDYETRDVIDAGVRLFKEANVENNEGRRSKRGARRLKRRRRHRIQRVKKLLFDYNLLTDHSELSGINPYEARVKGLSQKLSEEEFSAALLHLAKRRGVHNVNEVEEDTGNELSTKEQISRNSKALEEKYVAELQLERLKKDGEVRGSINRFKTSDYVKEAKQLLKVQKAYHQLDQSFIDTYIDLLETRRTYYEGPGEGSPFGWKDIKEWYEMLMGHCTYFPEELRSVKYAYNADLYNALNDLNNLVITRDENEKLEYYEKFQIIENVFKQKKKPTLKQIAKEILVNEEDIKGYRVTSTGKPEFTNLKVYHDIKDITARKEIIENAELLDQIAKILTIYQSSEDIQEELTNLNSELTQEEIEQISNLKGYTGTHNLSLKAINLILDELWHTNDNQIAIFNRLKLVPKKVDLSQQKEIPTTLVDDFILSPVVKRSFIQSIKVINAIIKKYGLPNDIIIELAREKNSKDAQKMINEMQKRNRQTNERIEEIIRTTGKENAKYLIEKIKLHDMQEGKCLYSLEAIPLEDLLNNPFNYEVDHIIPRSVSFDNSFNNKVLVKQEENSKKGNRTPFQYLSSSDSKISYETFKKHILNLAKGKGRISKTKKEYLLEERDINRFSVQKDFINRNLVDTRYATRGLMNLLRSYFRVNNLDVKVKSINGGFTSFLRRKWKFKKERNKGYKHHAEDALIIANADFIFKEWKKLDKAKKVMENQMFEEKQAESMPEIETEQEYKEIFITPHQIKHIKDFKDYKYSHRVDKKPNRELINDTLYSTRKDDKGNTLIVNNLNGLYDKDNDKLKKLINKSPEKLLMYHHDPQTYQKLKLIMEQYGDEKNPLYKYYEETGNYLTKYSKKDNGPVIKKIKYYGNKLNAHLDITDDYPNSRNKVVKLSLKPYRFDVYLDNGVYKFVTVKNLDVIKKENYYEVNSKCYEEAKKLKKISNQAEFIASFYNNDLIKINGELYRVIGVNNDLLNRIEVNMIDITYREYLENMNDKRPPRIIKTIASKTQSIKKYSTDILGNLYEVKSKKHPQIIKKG
As to the kind of experiment: Strand displacement assay, SaCas9 primary screen. It counts as biochemical. The note with it: for Auto Zscore Rep 1 / Auto Zscore Rep 2 / Normalized Zscore Rep 1 / Normalized Zscore Rep 2: SaCas9 primary screen; for Auto Zscore Rep 1 / Normalized Zscore Rep 1: replicate 1; for Auto Zscore Rep 2 / Normalized Zscore Rep 2: replicate 2; for Normalized Zscore Rep 1 / Normalized Zscore Rep 2: weaker potential hits; for 3 sigma Hit: flag 1 = hit at 3 sigma; for 5 sigma Hit: flag 1 = hit at 5 sigma. The protocol:
An overview of the screening for SaCas9 inhibitors is depicted in FIG. 14. A total of 43,168 Compounds were screened from the ICCB Libraries. Libraries screened for the initial compounds include ChemDiv 7 (34,848 cpds), Enamine 1 (5,280 cpds), ChemDiv1 (1,760 cpds), NIH Clinical Collection (450 cpds), Biomol 4—FDA Approved Library (640 cpds). A hit is determined from the Zscore, with 3-5σ being a weak hit, >5σ being a strong hit. The results of the hits include 193 Weak Hits and 249 Strong Hits. The NIH Clinical Collection 1-2014 was screened for 450 of 450 compounds, with 7 hits—1.5%. The Biomol 4—FDA Approved Library was screened for 640 of 640 compounds, with 8 hits—1.2%. […] Enamine 1 was screened for 5,280 of 6,004 compounds, with 44 hits—0.83%. Libraries are commercially available, with reference numbers utilized for compounds identifying the compound structures used. […]
Generalization of CAA to other Cas nucleases. Applicants sought to generalize CAA to other CRISPR-associated nucleases, including from Staphylococcus aureus (SaCas9). Given the similarities between SaCas9 and SpCas9 modes of DNA-substrate binding and protein folding,^26, 27 Applicants hypothesized that SaCas9-induced strand displacement could be similarly measured. Indeed, fluorescence quenching correlated with substrate cleavage in the CAA assay with active SaCas9:gRNA and an ACGGGT PAM sequence, which was validated with gel electrophoresis (FIG. 62F,G and FIG. 69F).
First, Applicants optimized various components and conditions of the strand displacement assay for Cas enzyme activity and generality with different Cas such as SpCas9 (FIG. 62B) or SaCas9 (FIG. 69F) or FnCas12a (FIG. 70A,B). Typically, SpCas9: gRNA (1:1.2 ratio) RNP was pre-formed at 1 μM in Cas9 assay buffer (20 mM Tris-HCl, pH=7.5, 100 mM KCl, 5 mM MgCl2) for 5 min at 4° C. before diluting to 10 nM in Cas9 assay buffer (2× final concentration). 25 μL of the Cas9 2× stock was manually dispensed to a black 384-well plate (Corning 3575) using electronic pipette. Apo SpCas9 (without guide RNA) was used at the same concentration as a control for no activity (mock inhibition). Following this, pre-annealed Alexa-Fluor 647 labeled substrate and quencher were also diluted to 1 nM and 5 nM in Cas9 assay buffer, respectively (2× stock solution). Next, 25 μL of the substrate/quencher solution was added manually to each well of the Cas9-containing 384-well plates using an electronic pipette and was incubated at 37° C. for 2.5 h. Fluorescent signals were read with the microplate reader set to read Alexa-Fluor 647 fluorescence. Assay was performed similarly with SaCas9 and FnCas12a using the respective enzyme, gRNA, substrate, and quencher oligos. Applicants similarly divulged the effect of PAM sequences of dsDNA on its assay specificity using TGG, TGC, AAC PAM containing substrates for SpCas9 (FIG. 62C), and ACGGGT, ACGGTT, TGCCCA PAM substrate for SaCas9 (FIG. 62F) and TTTC, TTGC, AAAG PAM substrates for FnCpf1 (FIG. 63B-C). Applicants also optimized the effective concentration of DS-AF647 and SS-AF647 fluorophores (FIG. 64A), DS-substrate to SpCas9 RNP ratio (FIG. 64B) and substrate to quencher ratio (FIG. 64C) on assay performance. Similarly, Applicants performed a time course experiment to establish the time required for maximum completion of the reaction at various substrate to SpCas9 RNP ratios (FIG. 64D).

Take `CCOC(=O)c1c(NC(=O)CSc2nnc3cc(C)c4cccc(OC)c4n23)sc(C)c1C` [Cpd D278-0687]: the “Auto Zscore Rep 1” value came out at 0.0101, the “Auto Zscore Rep 2” value came out at 0.4839, the “Normalized Zscore Rep 1” value was 0.1526 and the “Normalized Zscore Rep 2” value is 0.1495. Besides, the “3 sigma Hit” value amounted to 1 and the “5 sigma Hit” value is listed as 1.

Take `Cn1c(=O)c2c(-c3ccccc3)n3c(c2n(C)c1=O)C(c1ccc(O)c(O)c1)Nc1ccccc1-3` (centres unmarked) [Cpd D359-0009]: the “Auto Zscore Rep 1” value is recorded as −1.668, the “Auto Zscore Rep 2” value is given as −0.1926, the “Normalized Zscore Rep 1” value came to 0.1601 and the “Normalized Zscore Rep 2” value was determined as 0.1044. In addition, the “3 sigma Hit” value turned out to be 1 and the “5 sigma Hit” value is 1.

As to `Cc1n[nH]c2c1C(c1ccc(O)c(O)c1)CC(=O)N2` (centres unmarked) [Cpd D361-0120], the “Auto Zscore Rep 1” value is given as −0.203, the “Auto Zscore Rep 2” value is −0.05734, the “Normalized Zscore Rep 1” value came to 0.3533 and the “Normalized Zscore Rep 2” value came out at 0.2821. Moreover, the “3 sigma Hit” value was 1 and the “5 sigma Hit” value was 1.

On to `COc1ccc(C2CC(=O)C3=C(C2)Nc2onc(C)c2C3c2ccc(O)c(O)c2)cc1OC` (centres unmarked) [Cpd D588-0034], for which the “Auto Zscore Rep 1” value stood at 0.4938, the “Auto Zscore Rep 2” value is reported as −1.181, the “Normalized Zscore Rep 1” value stood at 0.2106 and the “Normalized Zscore Rep 2” value is given as 0.2618. For the same molecule, the “3 sigma Hit” value is 1 and the “5 sigma Hit” value was 1.

Consider `Cc1noc2c1C(c1ccc(O)c(O)c1)C1=C(CC(c3ccccc3)CC1=O)N2` (centres unmarked) [Cpd D588-0186], for which the “Auto Zscore Rep 1” value came out at 0.2858, the “Auto Zscore Rep 2” value is given as −0.8337, the “Normalized Zscore Rep 1” value came to 0.2526 and the “Normalized Zscore Rep 2” value was 0.3021. Further, the “3 sigma Hit” value amounted to 1 and the “5 sigma Hit” value is recorded as 1.

Turning to `Cc1noc2c1C(c1ccc(O)c(O)c1)C1=C(CC(c3ccc(O)cc3)CC1=O)N2` (centres unmarked) [Cpd D588-0188], the “Auto Zscore Rep 1” value worked out at 0.6685, the “Auto Zscore Rep 2” value is listed as 0.2374, the “Normalized Zscore Rep 1” value was 0.2133 and the “Normalized Zscore Rep 2” value was 0.2195. The “3 sigma Hit” value amounted to 1 and the “5 sigma Hit” value is reported as 1.

Consider `CCOc1ccc(NC(=O)c2oc3cc(C)ccc3c2C)c2cccnc12` [Cpd D656-0040], for which the “Auto Zscore Rep 1” value was −0.413, the “Auto Zscore Rep 2” value was −1.287, the “Normalized Zscore Rep 1” value came to 0.4389 and the “Normalized Zscore Rep 2” value was 0.3581. Besides, the “3 sigma Hit” value came out at 1 and the “5 sigma Hit” value came to 1.

Regarding `Cc1cccc(Nc2nc(C(N)=O)c(NC(=O)c3ccc(F)cc3)s2)c1C` [Cpd D686-0236], the “Auto Zscore Rep 1” value worked out at 2.51, the “Auto Zscore Rep 2” value came out at 1.919, the “Normalized Zscore Rep 1” value stood at 0.2077 and the “Normalized Zscore Rep 2” value was 0.4936. In addition, the “3 sigma Hit” value was found to be 1.

As to `O=c1oc2c(O)c(O)ccc2c2c1CCC2` [Cpd D715-0012], the “Auto Zscore Rep 1” value is on record as −0.8066, the “Auto Zscore Rep 2” value is reported as −0.8068, the “Normalized Zscore Rep 1” value was determined as 0.4402 and the “Normalized Zscore Rep 2” value is 0.5823. The “3 sigma Hit” value was 1 and the “5 sigma Hit” value is recorded as 1.

For the molecule `O=c1ccc2ccc(OCc3nnn[nH]3)cc2o1` [Cpd D715-0997], the “Auto Zscore Rep 1” value was determined as 1.322, the “Auto Zscore Rep 2” value worked out at 0.6629, the “Normalized Zscore Rep 1” value is 0.2335 and the “Normalized Zscore Rep 2” value is listed as 0.4628. In addition, the “3 sigma Hit” value was 1.

For the molecule `O=c1oc2cc(OCc3nnn[nH]3)c(Cl)cc2c2c1CCC2` [Cpd D715-1040], the “Auto Zscore Rep 1” value is on record as 0.03234, the “Auto Zscore Rep 2” value is given as 2.456, the “Normalized Zscore Rep 1” value stood at 0.2698 and the “Normalized Zscore Rep 2” value is given as 0.4064. Also, the “3 sigma Hit” value turned out to be 1 and the “5 sigma Hit” value is recorded as 1.

Turning to `Cc1ccc(OCc2nn3c(-c4ccoc4C)nnc3s2)cc1` [Cpd D727-0112], the “Auto Zscore Rep 1” value was −0.1513, the “Auto Zscore Rep 2” value is −0.2297, the “Normalized Zscore Rep 1” value worked out at 0.2865 and the “Normalized Zscore Rep 2” value came out at 0.3127. For the same molecule, the “3 sigma Hit” value is given as 1 and the “5 sigma Hit” value is given as 1.

Consider `Cc1ccc(OCc2nn3c(-c4ccoc4C)nnc3s2)cc1C` [Cpd D727-0113], for which the “Auto Zscore Rep 1” value came to 1.744, the “Auto Zscore Rep 2” value is recorded as −0.999, the “Normalized Zscore Rep 1” value was 0.1802 and the “Normalized Zscore Rep 2” value was determined as 0.1627. Moreover, the “3 sigma Hit” value came out at 1.

In the case of `Cc1occc1-c1nnc2sc(COc3ccc(Br)cc3)nn12` [Cpd D727-0114], the “Auto Zscore Rep 1” value amounted to 1.154, the “Auto Zscore Rep 2” value was −0.6566, the “Normalized Zscore Rep 1” value turned out to be 0.2766 and the “Normalized Zscore Rep 2” value is on record as 0.2635. The “3 sigma Hit” value came out at 1 and the “5 sigma Hit” value is listed as 1.

Turning to `Fc1ccc(-c2nn3c(CSc4ccccc4)nnc3s2)cc1` [Cpd D727-0190], the “Auto Zscore Rep 1” value turned out to be 0.8466, the “Auto Zscore Rep 2” value is recorded as −0.6764, the “Normalized Zscore Rep 1” value turned out to be 0.2272 and the “Normalized Zscore Rep 2” value was 0.2685. The “3 sigma Hit” value stood at 1 and the “5 sigma Hit” value is 1.

As for `COCCc1nnc2n1N=C(c1ccc(Cl)cc1)CS2` [Cpd D727-0342], the “Auto Zscore Rep 1” value is listed as −0.6224, the “Auto Zscore Rep 2” value worked out at 1.036, the “Normalized Zscore Rep 1” value came to 0.1633 and the “Normalized Zscore Rep 2” value came to 0.1771. The “3 sigma Hit” value is on record as 1.
